This note sets out measurements from patent US6545002B1 (University of Virginia Patent Foundation, priority 1999, dated 2003).

One series concerns the target T1, human A3 receptors (hA3) (Homo sapiens, UniProt P0DMS8).
T1 construct: expressed in transfected cells; host or cells: HEK-293
T1 sequence (P0DMS8 1-318): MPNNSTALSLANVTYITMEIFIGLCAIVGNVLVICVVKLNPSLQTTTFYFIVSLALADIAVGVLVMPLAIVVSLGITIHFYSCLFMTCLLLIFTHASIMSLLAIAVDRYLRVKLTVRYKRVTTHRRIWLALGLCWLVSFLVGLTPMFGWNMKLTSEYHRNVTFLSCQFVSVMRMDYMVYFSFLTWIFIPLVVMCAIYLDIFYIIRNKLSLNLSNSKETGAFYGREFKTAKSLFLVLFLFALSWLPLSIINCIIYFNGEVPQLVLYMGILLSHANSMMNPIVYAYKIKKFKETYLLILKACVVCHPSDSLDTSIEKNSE
The series is described as follows: Displacement of [125I]ABA binding at human A3 receptors expressed in HEK-293 cells. The settings on record: Table 1; [125I]ABA, HEK-293; read-out: hA3 Ki or IC50.

Series [1] concerns the target T2, human A2B receptors (hA2B) (Homo sapiens, UniProt P29275).
T2 construct: expressed in transfected cells; host or cells: HEK-293 (HEK-A2B, G418-selected)
T2 sequence (P29275 1-332): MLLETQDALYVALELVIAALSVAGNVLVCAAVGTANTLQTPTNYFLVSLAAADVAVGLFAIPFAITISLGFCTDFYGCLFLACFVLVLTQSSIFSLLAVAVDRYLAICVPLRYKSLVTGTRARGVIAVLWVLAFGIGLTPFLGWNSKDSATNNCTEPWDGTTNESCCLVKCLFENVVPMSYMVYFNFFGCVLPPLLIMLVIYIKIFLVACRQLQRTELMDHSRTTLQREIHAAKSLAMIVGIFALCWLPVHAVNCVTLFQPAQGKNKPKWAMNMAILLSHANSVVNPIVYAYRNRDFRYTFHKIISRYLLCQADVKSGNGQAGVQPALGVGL
The series is described as follows: Radioligand binding ([125I]ABOPX / [3H]ZM241385) at human A2B receptors expressed in HEK-293 cells. The settings on record: for Ki: read-out: hA2B Ki or IC50.

A further series concerns the target T3, rat A1 receptors (rA1) (Rattus norvegicus, UniProt P25099).
T3 construct: to A1 receptors from rat cerebral cortical membranes; from tissue; host or cells: rat cerebral cortical (brain) membranes
T3 sequence (P25099 1-326): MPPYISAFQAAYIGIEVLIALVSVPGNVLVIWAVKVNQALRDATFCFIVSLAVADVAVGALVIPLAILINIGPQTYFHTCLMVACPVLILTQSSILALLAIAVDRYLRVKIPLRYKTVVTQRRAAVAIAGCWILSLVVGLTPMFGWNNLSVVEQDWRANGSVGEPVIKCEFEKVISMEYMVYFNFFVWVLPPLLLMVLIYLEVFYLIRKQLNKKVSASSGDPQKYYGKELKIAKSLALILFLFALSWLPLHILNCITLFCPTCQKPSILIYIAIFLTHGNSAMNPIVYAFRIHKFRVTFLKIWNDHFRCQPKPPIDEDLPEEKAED
The series is described as follows: Displacement of [3H]R-PIA binding in rat brain (cerebral cortical) membranes. The settings on record: for Ki: read-out: rA1 Ki or IC50. How it is done:
(§1) Bruns, R. F. et al., Naunyn-Schmiedeberg's Arch. […] Binding of [^3H]R-N^6-phenylisopropyladenosine. Schwabe, U. et al., Naunyn-Schmiedeberg's Arch. […] (Dupont NEN, Boston, Mass.) to A2A receptors from rat striatal membranes was performed as described. […] All non-radioactive compounds were initially dissolved in DMSO, and diluted with buffer to the final concentration, where the amount of DMSO never exceeded 2%. Incubations were terminated by rapid filtration over Whatman GF/B filters, using a Brandell cell harvester (Brandell, Gaithersburg, Md.). The tubes were rinsed three times with 3 mL buffer each.
(§2) At least six different concentrations of competitor, spanning 3 orders of magnitude adjusted appropriately for the IC50 of each compound, were used. IC50 values, calculated with the nonlinear regression method implemented in (Graph-Pad Prism, San Diego, Calif.), were converted to apparent Ki values as described. Linden, J., J. Cycl. Nucl.

Another series concerns the target T4, rat A2A receptors (rA2A) (Rattus norvegicus, UniProt P30543).
T4 construct: to A2A receptors from rat striatal membranes was performed as described; from tissue; host or cells: rat striatal membranes
The series can be described thus: Displacement of [3H]CGS 21680 binding in rat striatal membranes. The settings on record: for Ki: read-out: rA2A Ki or IC50. How it is done:
as §1, §2

For series [2], the target named is T5, recombinant human A1 receptors (hA1) (Homo sapiens, UniProt P30542).
T5 sequence (P30542 1-326): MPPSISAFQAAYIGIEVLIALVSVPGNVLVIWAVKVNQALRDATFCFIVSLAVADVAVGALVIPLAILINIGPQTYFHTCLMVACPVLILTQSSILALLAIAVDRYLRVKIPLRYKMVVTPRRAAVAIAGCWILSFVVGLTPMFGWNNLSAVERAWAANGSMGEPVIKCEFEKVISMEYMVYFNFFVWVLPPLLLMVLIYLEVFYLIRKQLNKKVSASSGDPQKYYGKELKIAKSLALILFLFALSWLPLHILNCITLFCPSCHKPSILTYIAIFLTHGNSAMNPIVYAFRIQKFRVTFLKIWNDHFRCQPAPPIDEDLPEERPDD
The series can be described thus: Radioligand binding ([3H]CPX) at recombinant human A1 receptors in HEK-293 cells. The settings on record: read-out: hA1 Ki, values marked (h); Table 1; recombinant human A1, HEK 293.
Description: The potency of the xanthine derivatives at human A2B receptors was evaluated using two binding assays. […] In order to determine selectivity, the xanthines were evaluated using standard binding assays at A1, A2A, and A3 receptors.

Where [3] appears, read: Table 1, [3H]R-PIA, rat brain membranes.
The mark [4] stands for this setting: Table 1, [3H]CGS 21680, rat striatal membranes.

Where two headings read alike, the source gives them in different places.

T4 sequence (P30543 whole entry): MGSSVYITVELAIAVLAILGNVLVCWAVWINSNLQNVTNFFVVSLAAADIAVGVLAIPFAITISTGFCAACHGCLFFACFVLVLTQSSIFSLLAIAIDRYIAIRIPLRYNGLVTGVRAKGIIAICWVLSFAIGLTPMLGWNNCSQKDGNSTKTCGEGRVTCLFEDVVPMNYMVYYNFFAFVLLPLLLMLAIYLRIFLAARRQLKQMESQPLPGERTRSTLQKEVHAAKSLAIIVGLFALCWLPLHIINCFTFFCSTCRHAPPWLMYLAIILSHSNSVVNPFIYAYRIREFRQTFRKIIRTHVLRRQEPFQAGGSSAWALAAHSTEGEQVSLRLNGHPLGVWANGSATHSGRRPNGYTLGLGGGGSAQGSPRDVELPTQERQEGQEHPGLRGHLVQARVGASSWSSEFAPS

Take `CC(=O)c1ccccc1NC(=O)/C=C/c1ccc(-c2nc3c([nH]2)c(=O)n(Cc2ccccc2)c(=O)n3Cc2ccccc2)cc1` (hydrate or solvate) [Compound 37, 8-[4-(2-(2-Acetylphenyl)carbamoyl-trans-vinyl)phenyl]-1,3-dibenzylxanthine]: the melting point was in the range of 308 to 309 °C.
On to `CCCn1c(=O)c2[nH]c(-c3ccc(OCC(=O)ON4C(=O)CCC4=O)cc3)nc2n(CCC)c1=O` [Compound 4b], for which the Ki on human A3 receptors (hA3) was found to be 227 nM; in series [1] (Table 1, [125I]ABOPX, HEK-293), 9.75 ± 4.8 nM; on rat A1 receptors (rA1) (setting [3]), 153 nM; at rat A2A receptors (rA2A) (setting [4]) it was 127 nM.
For the compound `O=C(O)COc1ccc(-c2nc3c([nH]2)c(=O)n(Cc2ccccc2)c(=O)n3Cc2ccccc2)cc1` [Compound 7, 8-[4-[(Carboxymethyl)oxy]phenyl]-1,3-dibenzyl-xanthine], the melting point was more than 310 °C. In addition, the inhibition constant (Ki) in series [1] (Table 1, [125I]ABOPX, HEK-293) came to 1760 nM. Also, at rat A1 receptors (rA1) (setting [3]), the Ki was 679 ± 190 nM. Moreover, on rat A2A receptors (rA2A) (Table 1, at 100,000 nM), the “rA2A % displacement of specific binding” value is recorded as 25 ± 3%.
For the compound `O=C(O)C=Cc1ccc(-c2nc3c([nH]2)c(=O)n(CC2CCCCC2)c(=O)n3CC2CCCCC2)cc1` [Compound 9], the Ki is 922 ± 399 nM on human A3 receptors (hA3); 4890 nM in series [2]; 199 ± 52 nM in series [1] (Table 1, [125I]ABOPX, HEK-293); 602 ± 24 nM at rat A1 receptors (rA1) (setting [3]).
As to `O=C(O)/C=C/c1ccc(-c2nc3c([nH]2)c(=O)n(Cc2ccccc2)c(=O)n3Cc2ccccc2)cc1` [Compound 10, 8-(4-(2-Carboxy-trans-vinyl)phenyl)-1,3-dibenzyl-xanthine], the melting point is more than 310 °C. In series [1] (Table 1, [125I]ABOPX, HEK-293), the Ki amounted to 469 ± 23 nM. In addition, the Ki on rat A1 receptors (rA1) (setting [3]) turned out to be 201 ± 23 nM. Also, the Ki on rat A2A receptors (rA2A) (setting [4]) is 4450 nM.
Consider `CCCn1c(=O)c2[nH]c(-c3ccc(OCC(N)=O)cc3)nc2n(CCC)c1=O` [Compound 11], for which the “potency versus the carboxylic acid 4a at A2B receptors” value in series [1] (relative to 4a) is “equipotent”. Further, the inhibition constant (Ki) was found to be 20 ± 3.8 nM on rat A1 receptors (rA1) (Table 2) and 76.3 ± 14 nM at rat A2A receptors (rA2A) (Table 2). The “more potent than the carboxylic acid 4a at A1 receptors” value at rat A1 receptors (rA1) (relative to 4a) is 3 fold. Also, the “more potent than the carboxylic acid 4a at A2A receptors” value on rat A2A receptors (rA2A) (relative to 4a) came out at 29 fold.
For `CCCn1c(=O)c2[nH]c(-c3ccc(OCC(=O)NC(c4ccccc4)c4ccccc4)cc3)nc2n(CCC)c1=O` [Compound 14, 8-[4-[(Diphenylmethylcarbamoylmethyl)oxy]phenyl]-1,3-di-(n-propyl)xanthine], the melting point fell in the range of 269 to 270 °C. In addition, the Ki in series [1] (Table 2) stood at 33.7 ± 17 nM. Also, the inhibition constant Ki on rat A1 receptors (rA1) (Table 2) was determined as 120 ± 21 nM. The same compound registered a rA2A % displacement at rat A2A receptors (rA2A) (Table 2, at (1000)) of 20 ± 8%.
With `CCCn1c(=O)c2[nH]c(-c3ccc(OCC(=O)N(C)c4ccccc4)cc3)nc2n(CCC)c1=O` [Compound 16, 8-[4-[(N-Methyl-N-phenylcarbamoylmethyl)oxy]phenyl]-1,3-di-(n-propyl)xanthine], the melting point turned out to be 215 °C. Also, in series [1], the “selectivity for human A2B versus rat A1 receptors” value is 40 fold and the “selectivity for human A2B versus rat A2A receptors” value is 92 fold. For the same compound, in series [1] (N-methyl anilide versus anilide, human A2B), the “reduction of affinity by N-methylation” value is 3.7 fold. For the same compound, in series [1] (Table 2), the Ki was found to be 5.42 ± 1.71 nM. The inhibition constant (Ki) at rat A1 receptors (rA1) (Table 2) stood at 218 ± 80 nM. Moreover, the Ki at rat A2A receptors (rA2A) (Table 2) is 497 ± 250 nM.
As for `CCCn1c(=O)c2[nH]c(-c3ccc(OCC(=O)N(CC(=O)OCC)CC(=O)OCC)cc3)nc2n(CCC)c1=O` [Compound 17, 8-[4-[(N,N-bis(Ethoxycarbonylmethyl)carbamoylmethyl)oxy]-phenyl]-1,3-di-(n-propyl)xanthine], the melting point worked out at 225 °C. Moreover, the Ki in series [1] (Table 2) amounted to 43.4 ± 8.4 nM. Moreover, the Ki on rat A1 receptors (rA1) (Table 2) is 26.8 ± 2.4 nM. At rat A2A receptors (rA2A) (Table 2), the Ki was determined as 999 ± 144 nM.
For `CCCn1c(=O)c2[nH]c(-c3ccc(OCC(=O)Nc4ccc(C(N)=O)cc4)cc3)nc2n(CCC)c1=O` [Compound 22, 8-[4-[((4-Carbamoyl)phenylcarbamoylmethyl)oxy]phenyl]-1,3-di-(n-propyl)xanthine], in that order: more than 310 °C, 7.75 ± 1.11 nM, 10.2 ± 2.5 nM and 683 ± 167 nM.
For `CCCn1c(=O)c2[nH]c(-c3ccc(OCC(=O)Nc4ccc(C(=O)NC)cc4)cc3)nc2n(CCC)c1=O` [Compound 23, 8-[4-[((4-Methylcarbamoyl)phenylcarbamoylmethyl)oxy]phenyl]-1,3-di-(n-propyl)xanthine], in that order: more than 310 °C, 3.34 ± 0.51 nM, 24.8 ± 1.8 nM and 98.1 ± 49.6 nM.
For `CCCn1c(=O)c2[nH]c(-c3ccc(OCC(=O)Nc4ccc(C(=O)O)cc4)cc3)nc2n(CCC)c1=O` [Compound 24, 8-[4-[((4-Carboxy)phenylcarbamoylmethyl)oxy]phenyl]-1,3-di-(n-propyl)xanthine], in that order: more than 310 °C, 16.1 ± 4.7 nM, 145 ± 28 nM and 220 ± 79 nM.
Consider `CCCn1c(=O)c2[nH]c(-c3ccc(OCC(=O)Nc4ccc(C)cc4)cc3)nc2n(CCC)c1=O` [Compound 25], for which the inhibitory constant (Ki) in series [1] (Table 2) amounted to 1.88 ± 0.76 nM; on rat A1 receptors (rA1) (Table 2), 17.5 ± 5 nM; at rat A2A receptors (rA2A) (Table 2), 126 ± 38 nM.
For `CCCn1c(=O)c2[nH]c(-c3ccc(OCC(=O)Nc4ccc(O)cc4)cc3)nc2n(CCC)c1=O` [Compound 26], in that order: 3.71 ± 0.76 nM, 5.88 ± 1.06 nM and 63.3 ± 20.4 nM.
As for `CC(=O)c1ccccc1NC(=O)/C=C/c1ccc(-c2nc3c([nH]2)c(=O)n(CC2CCCCC2)c(=O)n3CC2CCCCC2)cc1` [Compound 36, 8-[4-(2-(2-Acetylphenyl)carbamoyl-trans-vinyl)phenyl]-1,3-di-(cyclohexylmethyl)xanthine], the melting point was determined as 305 °C.
Regarding `CC(=O)c1ccccc1NC(=O)COc1ccc(-c2nc3c([nH]2)c(=O)n(Cc2ccccc2)c(=O)n3Cc2ccccc2)cc1` [Compound 38, 8-[4-[((2-Acetylphenyl)carbamoylmethyl)oxy]phenyl]-1,3-dibenzyl-xanthine], the melting point was determined as 284 °C.
As for `CCn1c(=O)c2[nH]c(-c3ccc(OCC(=O)Nc4ccc(C)cc4)cc3)nc2n(CC)c1=O` [Compound 39], the inhibitory constant (Ki) worked out at 1.78 ± 0.43 nM in series [1] (Table 3), 34.9 ± 0.3 nM on rat A1 receptors (rA1) (Table 3) and 71.1 ± 7.7 nM on rat A2A receptors (rA2A) (Table 3).
